Assay results: US5888993A, “Vanadium compounds in the treatment of elevated blood sugar levels” (The University of British Columbia, priority 1997, dated 1999)

Key:
diabetic rats = experiment: Comparison of BMOV and vanadyl kojate, acute time course of plasma glucose, rats made diabetic with STZ; assay type: in vivo, rat; set-up: plasma glucose level: unit not given here
Protocol: Using BMOV and Vanadyl Kojate as prepared in Examples 1 and 2 above, the relative efficacy of the two compounds was assessed using rats made diabetic with STZ. Again the animals were divided into responder and non-responder groups. For a 0.063 mmol V/kg ip injection, BMOV gave a 50:50 split between responder and non-responder groups whereas for vanadyl kojate the ratio was 60:40. On oral gavage of 0.55 mmol V/kg the responder:non-responder ratios were 50:50 and 57:43 respectively (n=10). However over a 12 day test period, there was a 100% response in terms of blood glucose reduction for diabetic rats receiving vanadyl kojate orally.

normal rats = experiment: Prolonged administration in drinking water (77 days), normal (control) rats; assay type: in vivo, rat
Protocol: BMOV was administered to normal and diabetic rats in drinking water.
The study was composed of 4 groups of animals Control (8 animals), Control-Treated (11 animals), Diabetic (11 animals) and Diabetic-Treated (12 animals). The diabetic state was induced by injecting STZ at 60 mg/kg dissolved in 0.9% NaCl I.V. via the tail vein to anaesthetized rats. The two control groups were injected with 0.9% NaCl I.V. through the tail vein. The diabetic state was determined with a "Testape"™ test at 3 days post-injection and later confirmed with a glucometer test. Blood glucose and insulin assays were carried out post-injection over the course of the study. Treatment according to the invention was started 1 week after determination of the diabetic state.
Treated diabetic animals received between 0.3 and 0.5 mmol/kg of the compound/day in drinking water over a 77 day period. Treated control animals received a slightly lower dose (0.2-0.3 mmol/day) over the same period. The concentration of BMOV in the drinking water was varied between 1.6 and 3.2 mM. The reason for the differing doses in the two sets of animals is that the two groups drank different amounts of water daily; it was difficult to attain the same dose in both groups.
1. As indicated above, 4 groups of animals were studied, but the diabetic-treated group was sub-divided to diabetic-treated responders (8 animals) and diabetic-treated non-responders (4 animals). Curve 1 is the control group, curve 2 the control-treated group, curve 3 the diabetic group, curve 4 is the diabetic-treated responders and curve 5 is the diabetic-treated non-responders. […] Treatment began with a […] solution of the compound. […] On day 24, the concentration was increased to 2.37 mM (0.7 mg/ml).

[1] = control treated, week 6, mean ± S.E.M.

Cc1occc(=O)c1[O-].Cc1occc(=O)c1[O-].[O]=[V+2] [BMOV, Bis(maltolato)oxovanadium(IV)]
plasma glucose level (diabetic rats; i.p. 0.063 mmol/kg, nonresponders (DTN), 0 h): 19.42 | plasma glucose level (diabetic rats; i.p. 0.063 mmol/kg, nonresponders (DTN), 1 h): 18.82 | plasma glucose level (diabetic rats; i.p. 0.063 mmol/kg, nonresponders (DTN), 2 h): 18.51 | plasma glucose level (diabetic rats; i.p. 0.063 mmol/kg, nonresponders (DTN), 4 h): 17.94 | plasma glucose level (diabetic rats; i.p. 0.063 mmol/kg, nonresponders (DTN), 6 h): 18.08 | plasma glucose level (diabetic rats; i.p. 0.063 mmol/kg, nonresponders (DTN), 8 h): 17.77 | plasma glucose level (diabetic rats; i.p. 0.063 mmol/kg, nonresponders (DTN), 12 h): 19.07 | plasma glucose level (diabetic rats; i.p. 0.063 mmol/kg, nonresponders (DTN), 24 h): 19.01 | plasma glucose level (diabetic rats; i.p. 0.063 mmol/kg, responders (DTR), 0 h): 17.51 | plasma glucose level (diabetic rats; i.p. 0.063 mmol/kg, responders (DTR), 1 h): 14.77 | plasma glucose level (diabetic rats; i.p. 0.063 mmol/kg, responders (DTR), 2 h): 12.65 | plasma glucose level (diabetic rats; i.p. 0.063 mmol/kg, responders (DTR), 4 h): 10.6 | plasma glucose level (diabetic rats; i.p. 0.063 mmol/kg, responders (DTR), 6 h): 10.28 | plasma glucose level (diabetic rats; i.p. 0.063 mmol/kg, responders (DTR), 8 h): 9.08 | plasma glucose level (diabetic rats; i.p. 0.063 mmol/kg, responders (DTR), 12 h): 9.38 | plasma glucose level (diabetic rats; i.p. 0.063 mmol/kg, responders (DTR), 24 h): 7.15 | plasma glucose level (diabetic rats; oral gavage 0.55 mmol/kg, nonresponders (DTN), 0 h): 19.31 | plasma glucose level (diabetic rats; oral gavage 0.55 mmol/kg, nonresponders (DTN), 1 h): 18.05 | plasma glucose level (diabetic rats; oral gavage 0.55 mmol/kg, nonresponders (DTN), 2 h): 17.57 | plasma glucose level (diabetic rats; oral gavage 0.55 mmol/kg, nonresponders (DTN), 4 h): 16.92 | plasma glucose level (diabetic rats; oral gavage 0.55 mmol/kg, nonresponders (DTN), 6 h): 16.43 | plasma glucose level (diabetic rats; oral gavage 0.55 mmol/kg, nonresponders (DTN), 8 h): 15.02 | plasma glucose level (diabetic rats; oral gavage 0.55 mmol/kg, nonresponders (DTN), 12 h): 17.17 | plasma glucose level (diabetic rats; oral gavage 0.55 mmol/kg, nonresponders (DTN), 24 h): 18.07 | plasma glucose level (diabetic rats; oral gavage 0.55 mmol/kg, responders (DTR), 0 h): 18.09 | plasma glucose level (diabetic rats; oral gavage 0.55 mmol/kg, responders (DTR), 1 h): 14.55 | plasma glucose level (diabetic rats; oral gavage 0.55 mmol/kg, responders (DTR), 2 h): 13.13 | plasma glucose level (diabetic rats; oral gavage 0.55 mmol/kg, responders (DTR), 4 h): 11.68 | plasma glucose level (diabetic rats; oral gavage 0.55 mmol/kg, responders (DTR), 6 h): 9.47 | plasma glucose level (diabetic rats; oral gavage 0.55 mmol/kg, responders (DTR), 8 h): 9.27 | plasma glucose level (diabetic rats; oral gavage 0.55 mmol/kg, responders (DTR), 12 h): 7.01 | plasma glucose level (diabetic rats; oral gavage 0.55 mmol/kg, responders (DTR), 24 h): 6.31 | insulin vs control, in words (normal rats; control treated): significantly lower | fluid intake (normal rats; control treated, day 77 (control 62.7±7.4)): 33.6 ± 7.2 mL | Cholesterol (normal rats; control treated, pretreatment (day before treatment started), mean ± S.E.M.): 1.64 ± 0.08 mmol/L | Triglyceride (normal rats; control treated, pretreatment, mean ± S.E.M.): 1.21 ± 0.14 mmol/L | Cholesterol (normal rats; [1]): 1.60 ± 0.06 mmol/L | Triglyceride (normal rats; [1]): 2.04 ± 0.22 mmol/L | food intake (normal rats; control-treated (control 29±0.1)): 25.5±0.3 grams per day | weight gain (normal rats; control-treated, 77 days, drinking water (control 250 g)): 200 g | fluid consumption vs all other groups, in words (normal rats; control-treated, by day 63): significant difference | weight gain, in words (normal rats; control-treated, from day 56): significantly decreased weight gain | food consumption vs all other groups, in words (normal rats; control-treated, from day 63 on): significant difference
